The target in assay [1] is T1, BK channel (large-conductance Ca2+-activated K+ channel, BKCa, KCa1.1) (Homo sapiens, UniProt Q12791).
T1 construct: gene KCNMA1
Description: whole-cell patch clamp of endogenous BK current in LNCaP cells; current identity confirmed by si-hBK. The assay is classed as cell-based. For orientation: Patch clamp records ionic current or voltage across a cell membrane.

Assay [2] concerns the target T1, BK channel (large-conductance Ca2+-activated K+ channel, BKCa, KCa1.1). Put plainly: whole-cell patch clamp of T-type-activated BK current in LNCaP-α1H cells ([…] in LNCaP-NE cells). The format is cell-based.

SMILES strings stand for the structures.

T1 sequence (Q12791 whole entry): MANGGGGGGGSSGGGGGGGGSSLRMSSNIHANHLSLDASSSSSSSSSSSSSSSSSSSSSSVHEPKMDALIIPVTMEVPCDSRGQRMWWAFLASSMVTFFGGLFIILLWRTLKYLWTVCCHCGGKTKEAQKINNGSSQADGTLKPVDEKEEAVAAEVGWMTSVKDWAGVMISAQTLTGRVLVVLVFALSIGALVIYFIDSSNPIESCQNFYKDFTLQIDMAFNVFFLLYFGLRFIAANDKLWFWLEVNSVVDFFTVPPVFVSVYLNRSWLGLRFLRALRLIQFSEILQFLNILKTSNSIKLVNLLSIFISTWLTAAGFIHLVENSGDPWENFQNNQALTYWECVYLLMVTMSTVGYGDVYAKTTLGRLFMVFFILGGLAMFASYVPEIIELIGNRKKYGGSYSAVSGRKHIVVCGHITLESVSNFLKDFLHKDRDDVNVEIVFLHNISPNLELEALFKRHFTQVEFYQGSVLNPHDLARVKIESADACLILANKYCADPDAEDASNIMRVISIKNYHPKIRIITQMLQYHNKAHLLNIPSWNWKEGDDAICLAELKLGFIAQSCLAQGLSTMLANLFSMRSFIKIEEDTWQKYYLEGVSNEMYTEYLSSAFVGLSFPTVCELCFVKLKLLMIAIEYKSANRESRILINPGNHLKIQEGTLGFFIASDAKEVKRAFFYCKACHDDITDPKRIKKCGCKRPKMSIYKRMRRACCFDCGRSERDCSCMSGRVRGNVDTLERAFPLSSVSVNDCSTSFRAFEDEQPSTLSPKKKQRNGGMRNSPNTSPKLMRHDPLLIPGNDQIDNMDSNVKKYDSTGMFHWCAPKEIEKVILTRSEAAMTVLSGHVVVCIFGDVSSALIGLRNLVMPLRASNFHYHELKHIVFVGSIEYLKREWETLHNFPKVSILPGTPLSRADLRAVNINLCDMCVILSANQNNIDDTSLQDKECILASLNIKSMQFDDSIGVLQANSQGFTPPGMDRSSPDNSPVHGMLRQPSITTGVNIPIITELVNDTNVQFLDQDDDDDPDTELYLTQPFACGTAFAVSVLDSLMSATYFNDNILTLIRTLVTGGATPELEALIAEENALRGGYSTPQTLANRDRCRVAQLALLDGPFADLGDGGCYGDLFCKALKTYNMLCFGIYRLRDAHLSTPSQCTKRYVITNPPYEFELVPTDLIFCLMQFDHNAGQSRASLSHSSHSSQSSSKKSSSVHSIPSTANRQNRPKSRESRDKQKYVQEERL

`CC(C)(O)[C@H]1O[C@H]2CC[C@@]3(C)[C@@](O)(CC[C@H]4Cc5c([nH]c6ccccc56)[C@@]43C)C2=CC1=O` [Pax, paxillin]: the “whole-cell patch clamp of endogenous BK current in LNCaP cells; current identity” value in assay [1] was 1 µM. A word on the IC50: it is the concentration that inhibits the measured activity by half. High values mean lower potency, low ones higher potency. In assay [2], `CC[N+](CC)(CC)CC` [TEA, tetraethyl ammonium] came in with a half-maximal inhibitory concentration (IC50) of 1140 ± 200 µM.

The record behind these values is PMC3773341 (Biology Open, 2013).
